Residues, ends and D or L forms follow the SMILES beside them.
These compounds were tested against T1, Reg1_301-599 (amino acids 301-599 of human Regnase-1) phosphorylation by IKKβ (Homo sapiens, UniProt Q5D1E8) (assay: Regnase-1 phosphorylation inhibition by compounds (AlphaScreen), IKKβ, C-terminal Regnase-1). Settings: Table 14, read-out: Phosphorylation inhibition Reg1_301-599, 50% inhibition concentration (IKKβ).
T1 construct: made in house; host or cells: Expi293 cells
T1 sequence (Q5D1E8 301-599): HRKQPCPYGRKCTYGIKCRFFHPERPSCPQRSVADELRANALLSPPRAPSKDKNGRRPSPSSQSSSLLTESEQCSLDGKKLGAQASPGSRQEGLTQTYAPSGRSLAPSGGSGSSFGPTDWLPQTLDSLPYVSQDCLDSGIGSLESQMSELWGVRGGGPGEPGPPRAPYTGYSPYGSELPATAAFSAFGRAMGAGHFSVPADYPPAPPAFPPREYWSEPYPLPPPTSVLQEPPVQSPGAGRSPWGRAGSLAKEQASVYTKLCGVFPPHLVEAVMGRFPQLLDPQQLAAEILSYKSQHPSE
Type: biochemical
Text: (§1) The full-length sequence of human Regnase-1 (UniProt ID: Q5D1E8) was used to prepare a construct having a FLAG tag on the N-terminal side and a recognition sequence for biotin ligase BirA on the C-terminal side (FL_Reg1) as a target protein. The above-mentioned Regnase-1 was expressed in mammalian Expi293 cells, purified with FLAG M2 agarose, and isolated by gel filtration chromatography. When biotinylation was required, methods from nonpatent documents (BMC biotechnology, 2008,8,41; and Protein Science, 1999,8,921-929) were used.
(§2) Among the full-length human Regnase-1 sequence, the 1st to 546th amino acid sequence was prepared and made into a construct having a FLAG tag on the N-terminal side and a biotin ligase BirA recognition sequence on the C-terminal side (herein, a Regnase-1 lacking the C-terminal domain of Regnase-1 (amino acids 547 to 599 in the case of SEQ ID NO: 2) is referred to as “ΔCTD_Reg1”. “ΔCTD_Reg1” is different from “Regnase-1ΔCTD”, which is a C-terminal domain deletion variant resulting from a frameshift mutation caused by a 1 bp deletion at codon 517, as prepared in Example 13). In addition, the sequence from amino acids 301 to 599 of the full-length human Regnase-1 sequence was designated as C-terminal Regnase-1, and a construct having a FLAG tag on the N-terminal side and a recognition sequence for biotin ligase BirA on the C-terminal side was prepared (Reg1_301-599). The above-mentioned Regnase-1 was expressed in mammalian Expi293 cells, purified with FLAG M2 agarose, and isolated by gel filtration chromatography. When biotinylation was required, methods of nonpatent documents (BMC biotechnology, 2008,8,41; and Protein Science, 1999,8,921-929) were used.
(§3) Using Kinase assay buffer III (manufactured by SignalChem) supplemented with 2 mM DTT, 100 μM sodium vanadate, and 2 mM manganese chloride, kinase (IKKβ (manufactured by SignalChem) or TBK1 (manufactured by SignalChem)) and Regnase-1 were reacted in the presence of 10 μM ATP at room temperature for 2 hours to perform a phosphorylation reaction.
(§4) Phosphorylated Regnase-1 was detected by the AlphaScreen system. After each of the above-mentioned phosphorylated Regnase-1 antibodies was added and reacted at room temperature for one hour, anti-FLAG AlphaLISA Acceptor Beads (manufactured by PerkinElmer) and Protein A AlphaScreen Donor Beads (manufactured by PerkinElmer) were added, and EnVision (manufactured by PerkinElmer) was used to measure the excited luminescence. As a result, phosphorylated Regnase-1 produced by the phosphorylation reaction by kinase was specifically detected, and signals were confirmed to be enhanced in a manner dependent on Regnase-1 and kinase concentrations (FIG. 24).
(§5) After mixing 2 nM of the above-mentioned Regnase-1 and the compound, phosphorylated Regnase-1 produced by the phosphorylation reaction was detected by the AlphaScreen system. As the results, the inhibition rate was calculated from the signals obtained when adding the compound at each concentration, by defining the signal obtained with Regnase-1 alone to be 100% inhibition rate, and the signal obtained when the same amount of solvent (DMSO) is added in place of the compound as 0% inhibition rate. The 50% inhibition concentration (μM) was calculated from the obtained dose response curve (Table 11).

SMILES	IC50
CC[C@H](C)[C@@H]1NC(=O)[C@H](CCCNC(=N)N)NC(=O)[C@H](Cc2ccc(O)cc2)NC(=O)[C@H](Cc2c[nH]c3ccccc23)NC(=O)[C@H](CO)NC(=O)[C@H](CC(N)=O)NC(=O)[C@H](C)N(C)C(=O)C[C@@H](C(=O)N2CCCC2)NC(=O)[C@H](CC(C)C)NC(=O)CNC(=O)[C@H](Cc2c[nH]c3ccccc23)NC1=O [PP22] (HELM PEPTIDE1{[meA].N.S.W.Y.R.I.W.G.L.D.[C1CCN([*:1])C1]}$PEPTIDE1,PEPTIDE1,1:R1-11:R3$$$V2.0)	31 µM
CC[C@H](C)[C@@H]1NC(=O)[C@H](CCCCN)NC(=O)[C@H](Cc2ccc(O)cc2)NC(=O)[C@H](Cc2c[nH]c3ccccc23)NC(=O)[C@H](CO)NC(=O)[C@H](CO)NC(=O)[C@H]([C@@H](C)O)NC(=O)[C@@H]2CCCN2C(=O)[C@@H](C)N(C)C(=O)C[C@@H](C(=O)N2CCCC2)NC(=O)[C@H](Cc2c[nH]c3ccccc23)NC1=O [PP23] (HELM PEPTIDE1{[C[C@H](C(=O)[*:2])N(C)[*:1]].P.T.S.S.W.Y.K.I.W.D.[C1CCN([*:1])C1]}$PEPTIDE1,PEPTIDE1,1:R1-11:R3$$$V2.0)	> 62.1 µM

The compounds below were run against T2, Reg1_301-599 (amino acids 301-599 of human Regnase-1) phosphorylation by TBK1 (Homo sapiens, UniProt Q5D1E8) (assay: Regnase-1 phosphorylation inhibition by compounds (AlphaScreen), TBK1, C-terminal Regnase-1). Settings: Table 13, read-out: Phosphorylation inhibition Reg1_301-599, 50% inhibition concentration (TBK1).
T2 construct: made in house; host or cells: Expi293 cells
T2 sequence (Q5D1E8 301-599): T1 sequence (Q5D1E8 301-599)
Type: biochemical
Description: as §2, §3, §4, §5

SMILES	IC50
CC[C@H](C)[C@@H]1NC(=O)[C@H](CC(=O)O)NC(=O)[C@H](C)N(C)C(=O)C[C@@H](C(=O)N2CCCC2)NC(=O)[C@H](Cc2c[nH]c3ccccc23)NC(=O)[C@H](CC(=O)O)NC(=O)[C@H](Cc2c[nH]c3ccccc23)NC(=O)[C@H](Cc2ccc(O)cc2)NC(=O)[C@H](CC(=O)O)NC(=O)[C@H](Cc2ccccc2)NC(=O)[C@H](Cc2c[nH]c3ccccc23)NC1=O [PP17] (HELM PEPTIDE1{[meA].D.I.W.F.D.Y.W.D.W.D.[C1CCN([*:1])C1]}$PEPTIDE1,PEPTIDE1,1:R1-11:R3$$$V2.0)	< 0.06 µM
CC[C@H](C)[C@@H]1NC(=O)[C@H](CC(N)=O)NC(=O)[C@H](Cc2ccc(O)cc2)NC(=O)[C@H](Cc2c[nH]c3ccccc23)NC(=O)[C@H](CO)NC(=O)[C@H](CC(N)=O)NC(=O)[C@H](CO)NC(=O)[C@H](Cc2ccccc2)NC(=O)[C@H](CC(N)=O)NC(=O)[C@H](C)N(C)C(=O)C[C@@H](C(=O)N2CCCC2)NC(=O)[C@H](Cc2c[nH]c3ccccc23)NC1=O [PP16] (HELM PEPTIDE1{[meA].N.F.S.N.S.W.Y.N.I.W.D.[C1CCN([*:1])C1]}$PEPTIDE1,PEPTIDE1,1:R1-12:R3$$$V2.0)	> 62.1 µM
CC[C@H](C)[C@@H]1NC(=O)[C@H](CCCCN)NC(=O)[C@H](Cc2ccc(O)cc2)NC(=O)[C@H](Cc2c[nH]c3ccccc23)NC(=O)[C@H](CO)NC(=O)[C@H](CC(N)=O)NC(=O)[C@H](C)N(C)C(=O)C[C@@H](C(=O)N2CCCC2)NC(=O)[C@H](CC(C)C)NC(=O)CNC(=O)[C@H](Cc2c[nH]c3ccccc23)NC1=O [PP21] (HELM PEPTIDE1{[meA].N.S.W.Y.K.I.W.G.L.D.[C1CCN([*:1])C1]}$PEPTIDE1,PEPTIDE1,1:R1-11:R3$$$V2.0)	17 µM
CC[C@H](C)[C@@H]1NC(=O)[C@H](CCCCN)NC(=O)[C@H](Cc2ccc(O)cc2)NC(=O)[C@H](Cc2ccccc2)NC(=O)[C@H](C(C)C)NC(=O)[C@H](C)N(C)C(=O)C[C@@H](C(=O)N2CCCC2)NC(=O)[C@H](Cc2c[nH]c3ccccc23)NC(=O)[C@H](CC(N)=O)NC(=O)[C@H](Cc2ccc(O)cc2)NC(=O)[C@H](Cc2c[nH]c3ccccc23)NC1=O [PP19] (HELM PEPTIDE1{[meA].V.F.Y.K.I.W.Y.N.W.D.[C1CCN([*:1])C1]}$PEPTIDE1,PEPTIDE1,1:R1-11:R3$$$V2.0)	5.8 µM

The compounds below were run against T3, ΔCTD_Reg1 (amino acids 1 to 546 of human Regnase-1) phosphorylation by TBK1 (Homo sapiens, UniProt Q5D1E8) (assay: Regnase-1 phosphorylation inhibition by compounds (AlphaScreen), TBK1, CTD-deficient Regnase-1). Settings: Table 11; 2 nM Regnase-1; AlphaScreen; read-out: 50% inhibition concentration, Regnase-1 phosphorylation, ΔCTD_Reg1, TBK1.
T3 construct: made in house; host or cells: Expi293 cells
T3 sequence (Q5D1E8 1-546): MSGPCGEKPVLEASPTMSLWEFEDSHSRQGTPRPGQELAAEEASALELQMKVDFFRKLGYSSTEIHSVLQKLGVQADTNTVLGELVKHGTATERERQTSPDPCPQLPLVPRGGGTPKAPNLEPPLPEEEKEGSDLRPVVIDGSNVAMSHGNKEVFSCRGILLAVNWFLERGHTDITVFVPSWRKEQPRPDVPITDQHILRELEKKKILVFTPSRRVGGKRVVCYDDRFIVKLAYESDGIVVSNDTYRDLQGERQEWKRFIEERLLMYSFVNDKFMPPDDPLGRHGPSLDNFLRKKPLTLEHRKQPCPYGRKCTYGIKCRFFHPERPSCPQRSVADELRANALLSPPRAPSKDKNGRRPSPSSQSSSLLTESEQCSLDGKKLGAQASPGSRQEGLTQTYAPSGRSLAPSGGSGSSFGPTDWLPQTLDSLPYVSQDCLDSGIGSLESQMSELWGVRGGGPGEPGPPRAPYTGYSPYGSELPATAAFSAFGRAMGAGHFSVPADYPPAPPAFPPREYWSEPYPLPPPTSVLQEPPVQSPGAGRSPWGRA
Type: biochemical
Text: as §1, §2, §3, §4, §5

SMILES	IC50
CC[C@H](C)[C@@H]1NC(=O)[C@H](CC(N)=O)NC(=O)[C@H](Cc2ccc(O)cc2)NC(=O)[C@H](Cc2c[nH]c3ccccc23)NC(=O)[C@H](CO)NC(=O)[C@H](CC(N)=O)NC(=O)[C@H](C)NC(=O)[C@H](Cc2ccc(O)cc2)NC(=O)CNC(=O)[C@H](C)N(C)C(=O)C[C@@H](C(=O)N2CCCC2)NC(=O)[C@H](Cc2c[nH]c3ccccc23)NC1=O [PP2] (HELM PEPTIDE1{[meA].G.Y.A.N.S.W.Y.N.I.W.D.[C1CCN([*:1])C1]}$PEPTIDE1,PEPTIDE1,1:R1-12:R3$$$V2.0)	17.6 µM
CC[C@H](C)[C@@H]1NC(=O)[C@H](Cc2ccc(O)cc2)NC(=O)[C@H](C)N(C)C(=O)C[C@@H](C(=O)N2CCCC2)NC(=O)[C@H](CC(C)C)NC(=O)[C@H](CC(=O)O)NC(=O)CNC(=O)[C@H](Cc2ccccc2)NC(=O)[C@H](Cc2ccccc2)NC(=O)[C@H](CC(=O)O)NC(=O)[C@H](Cc2c[nH]c3ccccc23)NC1=O [PP4] (HELM PEPTIDE1{[meA].Y.I.W.D.F.F.G.D.L.D.[C1CCN([*:1])C1]}$PEPTIDE1,PEPTIDE1,1:R1-11:R3$$$V2.0)	44.9 µM
CC[C@H](C)[C@@H]1NC(=O)[C@H](CC(N)=O)NC(=O)[C@H](Cc2ccc(O)cc2)NC(=O)[C@H](Cc2c[nH]c3ccccc23)NC(=O)[C@H](C)NC(=O)[C@H](CC(N)=O)NC(=O)[C@H](CO)NC(=O)[C@H](Cc2c[nH]cn2)NC(=O)[C@H](C)N(C)C(=O)C[C@@H](C(=O)N2CCCC2)NC(=O)[C@H](Cc2c[nH]c3ccccc23)NC1=O [PP5] (HELM PEPTIDE1{[meA].H.S.N.A.W.Y.N.I.W.D.[C1CCN([*:1])C1]}$PEPTIDE1,PEPTIDE1,1:R1-11:R3$$$V2.0)	19.1 µM
CC[C@H](C)[C@@H]1NC(=O)[C@H](CCCCN)NC(=O)[C@H](Cc2ccccc2)NC(=O)[C@H](Cc2c[nH]c3ccccc23)NC(=O)[C@H](CO)NC(=O)[C@H](CO)NC(=O)[C@H](CC(N)=O)NC(=O)[C@@H]2CCCN2C(=O)[C@@H](C)N(C)C(=O)C[C@@H](C(=O)N2CCCC2)NC(=O)[C@H](Cc2c[nH]c3ccccc23)NC1=O [PP6] (HELM PEPTIDE1{[C[C@H](C(=O)[*:2])N(C)[*:1]].P.N.S.S.W.F.K.I.W.D.[C1CCN([*:1])C1]}$PEPTIDE1,PEPTIDE1,1:R1-11:R3$$$V2.0)	14.5 µM

Same assay, conditions: Table 13; phosphorylation by TBK1; read-out: Phosphorylation inhibition ΔCTD_Reg1, 50% inhibition concentration (TBK1)

SMILES	IC50
CC[C@H](C)[C@@H]1NC(=O)[C@H](CC(=O)O)NC(=O)[C@H](C)N(C)C(=O)C[C@@H](C(=O)N2CCCC2)NC(=O)[C@H](Cc2c[nH]c3ccccc23)NC(=O)[C@H](CC(=O)O)NC(=O)[C@H](Cc2c[nH]c3ccccc23)NC(=O)[C@H](Cc2ccc(O)cc2)NC(=O)[C@H](CC(=O)O)NC(=O)[C@H](Cc2ccccc2)NC(=O)[C@H](Cc2c[nH]c3ccccc23)NC1=O [PP17] (HELM PEPTIDE1{[meA].D.I.W.F.D.Y.W.D.W.D.[C1CCN([*:1])C1]}$PEPTIDE1,PEPTIDE1,1:R1-11:R3$$$V2.0)	0.3 µM
CC[C@H](C)[C@@H]1NC(=O)[C@H](CCCCN)NC(=O)[C@H](Cc2ccc(O)cc2)NC(=O)[C@H](Cc2ccccc2)NC(=O)[C@H](C(C)C)NC(=O)[C@H](C)N(C)C(=O)C[C@@H](C(=O)N2CCCC2)NC(=O)[C@H](Cc2c[nH]c3ccccc23)NC(=O)[C@H](CC(N)=O)NC(=O)[C@H](Cc2ccc(O)cc2)NC(=O)[C@H](Cc2c[nH]c3ccccc23)NC1=O [PP19] (HELM PEPTIDE1{[meA].V.F.Y.K.I.W.Y.N.W.D.[C1CCN([*:1])C1]}$PEPTIDE1,PEPTIDE1,1:R1-11:R3$$$V2.0)	4.6 µM

— patent publication US20250018014A1, “METHOD FOR TREATING AND/OR PREVENTING REGNASE-1-RELATED DISEASE” (OSAKA UNIVERSITY, priority 2018, published 2025)
